Assays:
Lung S9 metabolism = format: in vitro ADME, human; conditions: for Compound Remaining at 60 min (%) / microsomal CLint at 1 µM: human lung S9, 1 μM compound, 1 mg/mL S9 protein; for Sulfate Appearance: human lung S9, qualitative O-sulfate metabolite peak; for microsomal CLint at 1 µM: human lung S9 fraction, pH 7.4, NADPH and PAPS, read-out: Clearance
Method: The time 0, 15, 30, and 60 minute samples were analyzed for parent compound by high resolution LC-MS/MS. Lung S9 fractions from human (lot 1410245) were purchased from XenoTech LLC (Lenexa, Kans.). NADPH (Sigma Aldrich, N1630) and 3-phosphoadenosine 5-phosphosulfate (PAPS) (Sigma Aldrich, A1651) were purchased from Sigma Aldrich (St. Louis, Mo.). Acetonitrile and water were obtained from VWR (Radnor, Pa.) and were of HPLC grade or better. Raloxifene and formic acid was purchased from Sigma Aldrich (St. Louis, Mo.). Lung S9 incubations were performed in a water bath at 37° C. in a 96-well polypropylene plate. […] Louis, Mo.), 3 mM magnesium chloride (Sigma Aldrich, M1028) and in the presence of 100 μM PAPS (Sigma-Aldrich, St. […] Incubation volumes consisted of 400 μL and time points were taken at 0, 15, 30, and 60 minutes by the removal of a 70 μL aliquot and dilution into 140 μL acetonitrile (0% formic acid). All samples were centrifuged at 2250 g for 10 minutes at 5° C. Supernatant […] was taken from the centrifuged samples and diluted into 100 μL HPLC water containing internal standard. The samples were run on a Dionex Ultimate 3000 Auto sampler and analyzed using a Thermo Q-Exactive High Resolution Mass Spectrometer (Thermo, Waltham, Mass.) in Full Scan mode in conjunction with an Atlantis T3 column 3 μM-2.1×50 mm (Waters Inc., 186003717). Mobile Phase A consisted of Water+0.2% formic acid and Mobile Phase B consisted of acetonitrile +0.2% formic acid. Peak integration was accomplished using Gubbs GMSU software (Gubbs Inc., Alpharetta, Ga.). For each sample, peak area ratios were calculated by dividing the analyte peak area by the internal standard peak area. For each incubation, the peak area ratios of the analytes in each t0 was set to 100%, and the peak areas ratios from the 60 minute samples were converted to percentages remaining relative to the corresponding t0. Determination of sulfate metabolite formation was made qualitatively by observation of early-eluting peak in the parent ion channel which, based on historical internal data, corresponded to the O-sulfate metabolite of each parent compound.

JAK1 = JAK1 (Homo sapiens (Human), UniProt P23458); assay: Biochemical JAK kinase assay (LanthaScreen), JAK1; conditions: read-out: JAK1 pKi (converted)
Method: (§1) Recombinant GST-tagged JAK enzymes and a GFP-tagged STAT1 peptide substrate were obtained from Life Technologies. Serially diluted compounds were pre-incubated with each of the four JAK enzymes and the substrate in white 384-well microplates (Corning) at ambient temperature for 1 h. ATP was subsequently added to initiate the kinase reactions in 10 μL total volume, with 1% DMSO. […] Kinase reactions were allowed to proceed for 1 hour at ambient temperature before a 10 μL preparation of EDTA (10 mM final concentration) and Tb-anti-pSTAT1 ([…]) antibody (Life Technologies, 2 nM final concentration) in TR-FRET dilution buffer (Life Technologies) was added. The plates were allowed to incubate at ambient temperature for 1 h before being read on the EnVision reader (Perkin Elmer). Emission ratio signals (520 nm/495 nm) were recorded and utilized to calculate the percent inhibition values based on DMSO and background controls. For dose-response analysis, percent inhibition data were plotted vs. compound concentrations, and IC50 values were determined from a 4-parameter robust fit model with the Prism software (GraphPad Software). Results were expressed as pIC50 (negative logarithm of IC50) and subsequently converted to pKi (negative logarithm of dissociation constant, Ki) using the Cheng-Prusoff equation.

JAK2 = JAK2 (Homo sapiens (Human), UniProt O60674); assay: Biochemical JAK kinase assay (LanthaScreen), JAK2; conditions: for Ki: read-out: JAK2 pKi (converted)
Method: as §1, with “equation. Test compounds having a lower Ki value or higher pKi value in the four JAK assays show greater inhibition of JAK activity.” for “equation.”

[1] = system: IL-2 stimulated pSTAT5 in Tall-1 T cells; assay: Inhibition of IL-2 stimulated pSTAT5 in Tall-1 T cells; format: cell-based; conditions: IL-2 stimulated pSTAT5, Tall-1 human T cell line; read-out: Tall-1 pIC50 (converted)
Method: The potency of test compounds for inhibition of interleukin-2 (IL-2) stimulated STAT5 phosphorylation was measured in the Tall-1 human T cell line (DSMZ) using AlphaLisa. Because IL-2 signals through JAK1/3, this assay provides a measure of JAK1/3 cellular potency.
Phosphorylated STAT5 was measured via the AlphaLISA SureFire Ultra pSTAT5 (Tyr694/699) kit (PerkinElmer).
Human T cells from the Tall-1 cell line were cultured in a 37° C., 5% CO2 humidified incubator in RPMI (Life Technologies) supplemented with 15% Heat Inactivated Fetal Bovine Serum (FBS, Life Technologies), 2 mM Glutamax (Life Technologies), 25 mM HEPES (Life Technologies) and 1× Pen/Strep (Life Technologies). Compounds were serially diluted in DMSO and dispensed acoustically to empty wells. Assay media (phenol red-free DMEM (Life Technologies) supplemented with 10% FBS (ATCC)) was dispensed (4 μL/well) and plates shaken at 900 rpm for 10 mins. Cells were seeded at 45,000 cells/well in assay media (4 μL/well), and incubated at 37° C., 5% CO2 for 1 hour, followed by the addition of IL-2 (R&D Systems; final concentration 300 ng/mL) in pre-warmed assay media (4 μL) for 30 minutes. After cytokine stimulation, cells were lysed with 6 ul of 3× AlphaLisa Lysis Buffer (PerkinElmer) containing 1× PhosStop and Complete tablets (Roche). The lysate was shaken at 900 rpm for 10 minutes at room temperature (RT). Phosphorylated STAT5 was measured via the pSTAT5 AlphaLisa kit (PerkinElmer). Freshly prepared acceptor bead mixture was dispensed onto lysate (5 μL) under green filtered <100 lux light. Plates were shaken at 900 rpm for 2 mins, briefly spun down, and incubated for 2 hrs at RT in the dark. Donor beads were dispensed (5 μL) under green filtered <100 lux light. Plates were shaken at 900 rpm for 2 minutes, briefly spun down, and incubated overnight at RT in the dark. Luminescence was measured with excitation at 689 nm and emission at 570 nm using an EnVision plate reader (PerkinElmer) under green filtered <100 lux light.
To determine the inhibitory potency of test compounds in response to IL-2, the average emission intensity of beads bound to pSTAT5 was measured in a human T cell line. IC50 values were determined from analysis of the inhibition curves of signal intensity versus compound concentration. Data are expressed as pIC50 (negative decadic logarithm IC50) values (mean±standard deviation).

Tyk2 = Tyk2 (Homo sapiens (Human), UniProt P29597); assay: Biochemical JAK kinase assay (LanthaScreen), Tyk2
Method: as §1

Sequence of JAK2 (O60674 whole entry): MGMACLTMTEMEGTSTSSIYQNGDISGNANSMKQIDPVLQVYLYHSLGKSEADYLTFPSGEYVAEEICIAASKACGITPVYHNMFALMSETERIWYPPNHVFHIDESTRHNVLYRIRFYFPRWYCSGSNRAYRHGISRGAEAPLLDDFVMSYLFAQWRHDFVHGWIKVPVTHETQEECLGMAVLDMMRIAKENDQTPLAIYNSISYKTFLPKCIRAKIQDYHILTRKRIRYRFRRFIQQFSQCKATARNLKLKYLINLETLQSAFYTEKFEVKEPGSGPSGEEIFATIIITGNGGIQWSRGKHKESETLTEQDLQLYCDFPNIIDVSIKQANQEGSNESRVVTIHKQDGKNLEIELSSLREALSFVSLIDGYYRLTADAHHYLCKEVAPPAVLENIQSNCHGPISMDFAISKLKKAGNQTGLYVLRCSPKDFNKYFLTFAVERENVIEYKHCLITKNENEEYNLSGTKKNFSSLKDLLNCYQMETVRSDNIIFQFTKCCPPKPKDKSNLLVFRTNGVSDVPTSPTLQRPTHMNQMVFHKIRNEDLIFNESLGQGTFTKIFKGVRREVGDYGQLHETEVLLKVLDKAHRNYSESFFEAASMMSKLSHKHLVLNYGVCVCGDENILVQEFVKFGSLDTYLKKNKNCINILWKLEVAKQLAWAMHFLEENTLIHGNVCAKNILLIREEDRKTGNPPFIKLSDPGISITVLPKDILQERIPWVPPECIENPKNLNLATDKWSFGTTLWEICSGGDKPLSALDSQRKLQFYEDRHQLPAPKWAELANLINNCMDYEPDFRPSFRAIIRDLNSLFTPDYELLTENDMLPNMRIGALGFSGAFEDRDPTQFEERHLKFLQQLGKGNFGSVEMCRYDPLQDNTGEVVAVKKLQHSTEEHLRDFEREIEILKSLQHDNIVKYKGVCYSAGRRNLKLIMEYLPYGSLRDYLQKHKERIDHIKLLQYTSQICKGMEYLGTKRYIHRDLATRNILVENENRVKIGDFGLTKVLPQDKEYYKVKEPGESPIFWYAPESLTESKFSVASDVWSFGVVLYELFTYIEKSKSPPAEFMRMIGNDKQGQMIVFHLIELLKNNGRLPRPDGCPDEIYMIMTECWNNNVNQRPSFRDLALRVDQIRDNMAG
Sequence of JAK1 (P23458 whole entry): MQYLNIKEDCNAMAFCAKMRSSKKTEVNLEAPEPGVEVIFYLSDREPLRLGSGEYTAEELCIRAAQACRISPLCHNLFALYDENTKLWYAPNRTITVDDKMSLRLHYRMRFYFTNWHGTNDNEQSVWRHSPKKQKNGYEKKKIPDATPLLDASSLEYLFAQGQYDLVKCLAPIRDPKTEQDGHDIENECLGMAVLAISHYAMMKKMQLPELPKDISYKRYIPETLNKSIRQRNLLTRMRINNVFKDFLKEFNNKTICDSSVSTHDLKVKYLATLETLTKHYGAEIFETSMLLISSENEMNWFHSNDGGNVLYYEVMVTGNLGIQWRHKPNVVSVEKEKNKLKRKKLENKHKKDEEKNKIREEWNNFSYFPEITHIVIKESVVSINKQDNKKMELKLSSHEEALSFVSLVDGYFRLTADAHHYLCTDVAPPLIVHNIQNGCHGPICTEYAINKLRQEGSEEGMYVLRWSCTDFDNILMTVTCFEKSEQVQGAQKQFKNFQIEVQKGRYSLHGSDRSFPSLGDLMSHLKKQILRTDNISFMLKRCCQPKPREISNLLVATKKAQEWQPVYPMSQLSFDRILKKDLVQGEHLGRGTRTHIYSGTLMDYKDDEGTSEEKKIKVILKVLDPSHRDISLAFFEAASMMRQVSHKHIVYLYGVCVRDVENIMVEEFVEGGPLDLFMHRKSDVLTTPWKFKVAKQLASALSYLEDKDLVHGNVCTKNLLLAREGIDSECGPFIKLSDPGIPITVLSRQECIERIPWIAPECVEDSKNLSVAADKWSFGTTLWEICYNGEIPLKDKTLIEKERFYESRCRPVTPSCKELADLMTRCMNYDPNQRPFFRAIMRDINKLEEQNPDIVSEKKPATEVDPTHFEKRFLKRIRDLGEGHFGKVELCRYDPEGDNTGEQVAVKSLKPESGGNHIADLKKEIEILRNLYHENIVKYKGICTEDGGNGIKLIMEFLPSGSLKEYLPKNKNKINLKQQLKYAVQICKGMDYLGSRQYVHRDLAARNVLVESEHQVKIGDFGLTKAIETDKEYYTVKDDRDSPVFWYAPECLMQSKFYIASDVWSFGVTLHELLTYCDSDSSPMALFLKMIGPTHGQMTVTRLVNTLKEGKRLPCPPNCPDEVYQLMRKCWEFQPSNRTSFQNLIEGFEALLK
Sequence of Tyk2 (P29597 whole entry): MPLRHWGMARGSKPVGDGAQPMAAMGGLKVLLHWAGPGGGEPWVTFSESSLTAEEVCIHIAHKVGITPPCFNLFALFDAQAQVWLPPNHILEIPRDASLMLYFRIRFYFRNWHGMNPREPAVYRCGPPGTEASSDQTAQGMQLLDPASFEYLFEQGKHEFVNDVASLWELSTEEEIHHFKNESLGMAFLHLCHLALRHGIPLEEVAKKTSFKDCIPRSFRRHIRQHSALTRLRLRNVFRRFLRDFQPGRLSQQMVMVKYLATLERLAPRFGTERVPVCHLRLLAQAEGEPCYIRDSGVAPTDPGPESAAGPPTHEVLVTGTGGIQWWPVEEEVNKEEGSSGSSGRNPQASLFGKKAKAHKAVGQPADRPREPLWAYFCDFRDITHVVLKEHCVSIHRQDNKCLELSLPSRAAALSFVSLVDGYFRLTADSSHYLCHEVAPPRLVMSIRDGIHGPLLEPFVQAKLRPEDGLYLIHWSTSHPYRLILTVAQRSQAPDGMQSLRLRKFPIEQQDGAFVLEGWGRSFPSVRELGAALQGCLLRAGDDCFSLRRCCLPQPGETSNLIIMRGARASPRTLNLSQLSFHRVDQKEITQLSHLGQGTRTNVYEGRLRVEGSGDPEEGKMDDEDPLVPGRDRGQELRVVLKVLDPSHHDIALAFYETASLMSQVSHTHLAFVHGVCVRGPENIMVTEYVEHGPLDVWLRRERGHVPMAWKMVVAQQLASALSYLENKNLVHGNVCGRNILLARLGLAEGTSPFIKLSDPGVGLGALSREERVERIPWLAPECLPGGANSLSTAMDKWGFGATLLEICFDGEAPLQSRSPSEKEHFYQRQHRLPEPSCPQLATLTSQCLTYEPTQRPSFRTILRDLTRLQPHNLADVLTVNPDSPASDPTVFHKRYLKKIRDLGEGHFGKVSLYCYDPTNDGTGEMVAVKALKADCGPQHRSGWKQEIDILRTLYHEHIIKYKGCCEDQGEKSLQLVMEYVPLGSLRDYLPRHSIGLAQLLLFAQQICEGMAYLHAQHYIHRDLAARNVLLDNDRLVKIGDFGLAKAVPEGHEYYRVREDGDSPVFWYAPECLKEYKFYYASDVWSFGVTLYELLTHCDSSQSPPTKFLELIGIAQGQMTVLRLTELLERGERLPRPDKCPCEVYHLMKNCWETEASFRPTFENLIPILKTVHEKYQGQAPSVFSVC

Row | SMILES | Compound Remaining at 60 min (%) (Lung S9 metabolism) | Sulfate Appearance (Lung S9 metabolism) | microsomal CLint at 1 µM (Lung S9 metabolism) | Ki (JAK1) | Ki (JAK2) | JAK2 pKi (JAK2) | IC50 [1] | Tyk2 pKi (Tyk2)
1 | CCc1cc(O)ccc1-c1ccc2c(-c3nc4c([nH]3)CN(CC)[C@H](C(=O)N3CC(N(C)C)C3)C4)n[nH]c2c1 [Compound 2, (S)-(3-(dimethylamino)azetidin-1-yl)(5-ethyl-2-(6-(2-ethyl-4-hydroxyphenyl)-1H-indazol-3-yl)-4,5,6,7-tetrahydro-3H-imidazo[4,5-c]pyridin-6-yl)methanone] | 98% | Yes | 0.6 µL/min/mg | – | – | – | – | –
2 | CCc1cc(O)c(F)cc1-c1ccc2c(-c3nc4c([nH]3)CN(C(C)C)[C@H](C(=O)N3CC(N(C)C)C3)C4)n[nH]c2c1 [Compound C-1, (S)-(3-(dimethylamino)azetidin-1-yl)(2-(6-(2-ethyl-5-fluoro-4-hydroxyphenyl)-1H-indazol-3-yl)-5-isopropyl-4,5,6,7-tetrahydro-3H-imidazo[4,5-c]pyridin-6-yl)methanone] | 6% | Yes | 49 µL/min/mg | – | – | – | – | –
3 | CCc1cc(O)c(F)cc1-c1ccc2c(-c3nc4c([nH]3)CN(CC)[C@H](C(=O)N3CC(C)(N(C)C)C3)C4)n[nH]c2c1 [Compound C-3, (S)-(3-(dimethylamino)-3-methylazetidin-1-yl)(5-ethyl-2-(6-(2-ethyl-5-fluoro-4-hydroxyphenyl)-1H-indazol-3-yl)-4,5,6,7-tetrahydro-3H-imidazo[4,5-c]pyridin-6-yl)methanone] | 5% | Yes | 50.6 µL/min/mg | – | – | 10.9 | 2 nM | 9.4
4 | CCc1cc(O)c(F)cc1-c1ccc2c(-c3nc4c([nH]3)CN(C(C)C)[C@H](C(=O)N3CC(C)(N(C)C)C3)C4)n[nH]c2c1 [Compound C-4, (S)-(3-(dimethylamino)-3-methylazetidin-1-yl)(2-(6-(2-ethyl-5-fluoro-4-hydroxyphenyl)-1H-indazol-3-yl)-5-isopropyl-4,5,6,7-tetrahydro-3H-imidazo[4,5-c]pyridin-6-yl)methanone] | 4% | Yes | 53.2 µL/min/mg | 0.0794 nM | 0.0126 nM | – | 2.51 nM | –
5 | CCCN1Cc2[nH]c(-c3n[nH]c4cc(-c5cc(F)c(O)cc5CC)ccc34)nc2C[C@H]1C(=O)N1CC(C)(N(C)C)C1 [Compound C-6, (S)-(3-(dimethylamino)-3-methylazetidin-1-yl)(2-(6-(2-ethyl-5-fluoro-4-hydroxyphenyl)-1H-indazol-3-yl)-5-propyl-4,5,6,7-tetrahydro-3H-imidazo[4,5-c]pyridin-6-yl)methanone] | 4% | Yes | 53.5 µL/min/mg | – | – | 10.7 | 2.51 nM | –

Now from value to molecule, other results behind:

Row | Compound Remaining at 60 min (%) (Lung S9 metabolism) | Sulfate Appearance (Lung S9 metabolism) | microsomal CLint at 1 µM (Lung S9 metabolism) | SMILES | Ki (JAK1) | Ki (JAK2) | JAK2 pKi (JAK2) | IC50 [1] | Tyk2 pKi (Tyk2)
6 | 97% | Yes | 0.8 µL/min/mg | CCc1cc(O)ccc1-c1ccc2c(-c3nc4c([nH]3)CN(CC)[C@H](C(=O)N3CC(C)(N(C)C)C3)C4)n[nH]c2c1 [Compound 3, (S)-(3-(dimethylamino)-3-methylazetidin-1-yl)(5-ethyl-2-(6-(2-ethyl-4-hydroxyphenyl)-1H-indazol-3-yl)-4,5,6,7-tetrahydro-3H-imidazo[4,5-c]pyridin-6-yl)methanone] | – | – | – | – | –
7 | 100% | Yes | – | CCc1cc(O)ccc1-c1ccc2c(-c3nc4c([nH]3)CN(C(C)C)[C@H](C(=O)N3CC(C)(N(C)C)C3)C4)n[nH]c2c1 [Compound 4, (S)-(3-(dimethylamino)-3-methylazetidin-1-yl)(2-(6-(2-ethyl-4-hydroxyphenyl)-1H-indazol-3-yl)-5-isopropyl-4,5,6,7-tetrahydro-3H-imidazo[4,5-c]pyridin-6-yl)methanone] | – | – | – | – | –
8 | 96% | Yes | 1.6 µL/min/mg | CCCN1Cc2[nH]c(-c3n[nH]c4cc(-c5ccc(O)cc5CC)ccc34)nc2C[C@H]1C(=O)N1CC(N(C)C)C1 [Compound 5, (S)-(3-(dimethylamino)azetidin-1-yl)(2-(6-(2-ethyl-4-hydroxyphenyl)-1H-indazol-3-yl)-5-propyl-4,5,6,7-tetrahydro-3H-imidazo[4,5-c]pyridin-6-yl)methanone] | 0.0316 nM | – | – | – | –
9 | 90% | Yes | 1.8 µL/min/mg | CCCN1Cc2[nH]c(-c3n[nH]c4cc(-c5ccc(O)cc5CC)ccc34)nc2C[C@H]1C(=O)N1CC(C)(N(C)C)C1 [Compound 6, (S)-(3-(dimethylamino)-3-methylazetidin-1-yl)(2-(6-(2-ethyl-4-hydroxyphenyl)-1H-indazol-3-yl)-5-propyl-4,5,6,7-tetrahydro-3H-imidazo[4,5-c]pyridin-6-yl)methanone] | – | 0.0316 nM | – | – | –
